Laboratory results published in ChEMBL document CHEMBL3638656, “Trifluoromethyl-oxadiazole derivatives and their use in the treatment of disease” (2015).

Target: Histone deacetylase 4 (Homo sapiens, UniProt P56524)
Assay: Inhibition Assay: Human recombinant HDAC4 was expressed in full length form (aa 2-1084) in Sf9 insect cells (obtained from ATCC) using baculovirus generated with Bac-to-Bac system (Invitrogen). Test compounds were serially diluted to reach final test concentrations from 0.003 uM to 100 uM. HDAC4 and test compounds were incubated in 25 mM Tris buffer pH 8.0 containing 137 mM NaCl, 2.7 mM KCl, 1 mM MgCl2 and 0.05% (w/v) bovine serum albumine for 2 hours at room temperature in presence of 10 uM of acetyl-Gly-Ala-Lys(E-trifluoroacetyl)-AMC (AMC=7-amino-4-methyl coumarin) in a final volume of 200 ul. Control wells with HDAC4 only (positive control) and without HDAC4 (negative control) were included on the microplate. Bovine trypsin (10 ul of a 0.4 mg/ml solution) was added and the plate incubated for additional 15 minutes at room temperature. The plate was placed in a fluorescence microplate reader, and read at an excitation wavelength of 360 nm and an emission wavelength of 450 nm.

Histone deacetylase 4, sequence (P56524 whole entry, the tested form may be a part): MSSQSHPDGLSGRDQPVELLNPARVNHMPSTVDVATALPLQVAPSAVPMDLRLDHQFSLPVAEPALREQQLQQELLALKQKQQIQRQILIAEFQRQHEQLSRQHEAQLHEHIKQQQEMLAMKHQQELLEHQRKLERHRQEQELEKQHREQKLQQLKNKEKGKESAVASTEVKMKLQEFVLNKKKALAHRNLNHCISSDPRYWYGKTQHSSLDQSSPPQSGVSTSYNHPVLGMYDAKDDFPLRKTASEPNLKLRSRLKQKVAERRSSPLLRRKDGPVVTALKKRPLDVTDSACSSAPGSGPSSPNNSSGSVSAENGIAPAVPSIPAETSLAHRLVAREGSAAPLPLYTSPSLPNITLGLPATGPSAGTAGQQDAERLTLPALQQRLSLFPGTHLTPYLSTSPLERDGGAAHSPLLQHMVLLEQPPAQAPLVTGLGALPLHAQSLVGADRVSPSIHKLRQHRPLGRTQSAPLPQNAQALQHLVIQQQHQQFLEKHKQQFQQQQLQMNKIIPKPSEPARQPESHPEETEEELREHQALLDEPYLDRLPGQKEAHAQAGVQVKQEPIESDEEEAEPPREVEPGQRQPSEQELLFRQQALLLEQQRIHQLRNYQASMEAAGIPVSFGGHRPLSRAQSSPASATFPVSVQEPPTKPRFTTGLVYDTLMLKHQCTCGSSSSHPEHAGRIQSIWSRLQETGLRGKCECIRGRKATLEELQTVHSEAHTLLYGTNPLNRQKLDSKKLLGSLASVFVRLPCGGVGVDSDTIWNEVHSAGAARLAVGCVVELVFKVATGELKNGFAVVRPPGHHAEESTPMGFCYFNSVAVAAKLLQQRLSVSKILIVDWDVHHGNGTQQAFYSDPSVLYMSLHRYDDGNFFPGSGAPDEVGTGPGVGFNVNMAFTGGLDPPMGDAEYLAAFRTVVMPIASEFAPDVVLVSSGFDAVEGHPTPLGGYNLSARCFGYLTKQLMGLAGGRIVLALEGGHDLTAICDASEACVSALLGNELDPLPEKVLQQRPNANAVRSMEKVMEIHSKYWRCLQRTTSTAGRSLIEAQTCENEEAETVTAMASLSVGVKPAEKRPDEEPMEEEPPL

IC50: 0.072 µM
SMILES: CCN(C)C[C@@H](C)NC(=O)c1ccc(-c2noc(C(F)(F)F)n2)cc1F
